Experimental data reported in BigSolDB 2.1.

O=C1C=CC(=O)c2ccccc21
Settings | solubility (mole fraction)
in acetone, 293.27 K | 0.0362
in acetone, 295.46 K | 0.0373
in acetone, 295.8 K | 0.0377
in acetone, 298.25 K | 0.0399
in acetone, 298.51 K | 0.0403
in acetone, 299.07 K | 0.0411
in acetone, 300.66 K | 0.0437
in acetone, 302.06 K | 0.0467
in acetone, 304 K | 0.0503
in acetone, 305.3 K | 0.0532
in acetone, 308.24 K | 0.0584
in acetone, 311.24 K | 0.0639
in acetone, 312.91 K | 0.0683
in acetone, 314.97 K | 0.0727
in acetone, 316.33 K | 0.0767
in acetone, 318.06 K | 0.081
in acetone, 319.63 K | 0.0856
in ethanol, 279.8 K | 0.00145
in ethanol, 285.78 K | 0.00221
in ethanol, 289.05 K | 0.00277
in ethanol, 292.72 K | 0.00335
in ethanol, 296.52 K | 0.00412
in ethanol, 299.87 K | 0.00487
in ethanol, 303.25 K | 0.00596
in ethanol, 305.99 K | 0.00696
in ethanol, 309.13 K | 0.00825
in ethanol, 311.85 K | 0.00945
in ethanol, 314.73 K | 0.0109
in ethanol, 316.84 K | 0.0121
in ethanol, 319.52 K | 0.0134
in ethanol, 321.15 K | 0.0145
in ethanol, 322.93 K | 0.0157
in ethanol, 328.25 K | 0.0199
in ethanol, 329.13 K | 0.0212
in ethanol, 331.34 K | 0.0235
in ethanol, 333.04 K | 0.0256
in ethanol, 334.13 K | 0.0274
in ethanol, 335.43 K | 0.0294
in n-butanol, 302.1 K | 0.00657
in n-butanol, 307.2 K | 0.00908
in n-butanol, 312.32 K | 0.012
in n-butanol, 317.1 K | 0.0152
in n-butanol, 319.33 K | 0.017
in n-butanol, 320.94 K | 0.0183
in n-butanol, 322.16 K | 0.0199
in n-butanol, 325.85 K | 0.0238
in n-butanol, 330.35 K | 0.0307
in n-butanol, 334.33 K | 0.0377
in n-butanol, 336.45 K | 0.0434
in n-butanol, 339.23 K | 0.05
in n-butanol, 341.3 K | 0.056
in n-butanol, 343.26 K | 0.0624
in n-butanol, 344.6 K | 0.0695
in n-butanol, 346.03 K | 0.0763
in toluene, 294.1 K | 0.0476
in toluene, 297.82 K | 0.0537
in toluene, 300.35 K | 0.0585
in toluene, 302.68 K | 0.0631
in toluene, 304.44 K | 0.0668
in toluene, 306.58 K | 0.0723
in toluene, 310.16 K | 0.081
in toluene, 313.15 K | 0.089
in toluene, 315.25 K | 0.094
in toluene, 317.27 K | 0.0994
in toluene, 319.93 K | 0.107
in toluene, 321.45 K | 0.113
in toluene, 322.53 K | 0.116
in toluene, 322.93 K | 0.118
in toluene, 327.2 K | 0.133
in toluene, 330.45 K | 0.145
in toluene, 331.95 K | 0.153
